Experimental data published in PubChem BioAssay (NCI).
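GI50 marks 50% less growth. TGI is the concentration that stops growth completely.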

Columns and labels:
Assay in all cases: NCI-60 cell line screen, 384-well format
BT-549 breast = test system: BT-549 breast
CCRF-CEM leukemia = test system: CCRF-CEM leukemia
SN12C renal = test system: SN12C renal
NCI-H460 NSCLC = test system: NCI-H460 NSCLC
786-0 renal = test system: 786-0 renal
NCI/ADR-RES ovarian = test system: NCI/ADR-RES ovarian
OVCAR-4 ovarian = test system: OVCAR-4 ovarian
CAKI-1 renal = test system: CAKI-1 renal
MDA-MB-231 breast = test system: MDA-MB-231 breast
HT29 colon = test system: HT29 colon
UACC-62 melanoma = test system: UACC-62 melanoma
HCC-2998 colon = test system: HCC-2998 colon
A549 NSCLC = test system: A549 NSCLC
OVCAR-8 ovarian = test system: OVCAR-8 ovarian
NCI-H23 lung = test system: NCI-H23 lung
U251 glioblastoma = test system: U251 glioblastoma
RXF 393 renal = test system: RXF 393 renal
TK-10 renal = test system: TK-10 renal
T-47D breast = test system: T-47D breast
HL-60(TB) leukemia = test system: HL-60(TB) leukemia
SK-OV-3 ovarian = test system: SK-OV-3 ovarian
IGROV1 ovarian = test system: IGROV1 ovarian
SF-539 CNS = test system: SF-539 CNS
SNB-75 CNS = test system: SNB-75 CNS
A498 renal = test system: A498 renal
SNB-19 CNS = test system: SNB-19 CNS
MDA-MB-468 breast = test system: MDA-MB-468 breast
SK-MEL-28 melanoma = test system: SK-MEL-28 melanoma

NC(=O)c1ccc(I)c([N+](=O)[O-])c1
GI50 (BT-549 breast): 71.1 µM | TGI (BT-549 breast): > 100 µM | GI50 (CCRF-CEM leukemia): 21.4 µM | TGI (CCRF-CEM leukemia): 45.3 µM | GI50 (SN12C renal): 62.7 µM | TGI (SN12C renal): > 100 µM | GI50 (NCI-H460 NSCLC): 78.5 µM | TGI (NCI-H460 NSCLC): > 100 µM | GI50 (786-0 renal): > 100 µM | TGI (786-0 renal): > 100 µM | GI50 (NCI/ADR-RES ovarian): > 100 µM | TGI (NCI/ADR-RES ovarian): > 100 µM | GI50 (OVCAR-4 ovarian): 17.9 µM | TGI (OVCAR-4 ovarian): 31.9 µM | GI50 (CAKI-1 renal): 20.6 µM | TGI (CAKI-1 renal): 36.1 µM | GI50 (MDA-MB-231 breast): 70.2 µM | TGI (MDA-MB-231 breast): > 100 µM | GI50 (HT29 colon): 44 µM | TGI (HT29 colon): > 100 µM | GI50 (UACC-62 melanoma): 39 µM | TGI (UACC-62 melanoma): > 100 µM | GI50 (HCC-2998 colon): 28.2 µM | TGI (HCC-2998 colon): 56.2 µM | GI50 (A549 NSCLC): > 100 µM | TGI (A549 NSCLC): > 100 µM | GI50 (OVCAR-8 ovarian): > 100 µM | TGI (OVCAR-8 ovarian): > 100 µM | GI50 (NCI-H23 lung): 24.3 µM | TGI (NCI-H23 lung): 52.5 µM | GI50 (U251 glioblastoma): 53.1 µM | TGI (U251 glioblastoma): > 100 µM | GI50 (RXF 393 renal): 21.4 µM | TGI (RXF 393 renal): 36.3 µM | GI50 (TK-10 renal): > 100 µM | TGI (TK-10 renal): > 100 µM | GI50 (T-47D breast): 21 µM | TGI (T-47D breast): 38.1 µM | GI50 (HL-60(TB) leukemia): 18 µM | TGI (HL-60(TB) leukemia): 32.1 µM | GI50 (SK-OV-3 ovarian): 68.7 µM | TGI (SK-OV-3 ovarian): > 100 µM | GI50 (IGROV1 ovarian): 97.7 µM | TGI (IGROV1 ovarian): > 100 µM | GI50 (SF-539 CNS): > 100 µM | TGI (SF-539 CNS): > 100 µM | GI50 (SNB-75 CNS): 21.4 µM | TGI (SNB-75 CNS): > 100 µM | GI50 (A498 renal): 91.6 µM | TGI (A498 renal): > 100 µM | GI50 (SNB-19 CNS): > 100 µM | TGI (SNB-19 CNS): > 100 µM | GI50 (MDA-MB-468 breast): 10 µM | TGI (MDA-MB-468 breast): 23.3 µM | GI50 (SK-MEL-28 melanoma): 44.3 µM | TGI (SK-MEL-28 melanoma): > 100 µM
